Bridges are numbered along the chain shown (N, C = ends). Where no end group is shown, it is not given here.
System: HCCs of TGFα/c-myc mice
Test: Tumour penetration assessment with Evans blue
Format: in vivo, mouse
Conditions: 4 μmol/kg peptide i.v.; Evans blue 33 mg/kg i.v. 24 h later; photometric quantification; n = 11 tumours from four animals
Experimental: Homozygous metallothionein/TGFα and albumin/c-myc single transgenic mice in CD13B6CBA background were crossed to generate the male TGFα/c-myc bitransgenic mice, as previously described. Hepatocarcinogenesis was accelerated by giving the mice ZnCl2 (via the drinking water) to induce the expression of TGFα. The animals were inspected every 2 to 3 days. To detect and monitor the endogenously formed HCCs in the TGFα/c-myc mice, gadoxetic acid (Gd-EOB-DTPA)-enhanced MRI was performed on a 3T MRI scanner (Siemens Magnetom Trio, Siemens Medical Solutions) as described recently. Mice with HCC as identified by Gd-EOB-DTPA-enhanced MRI were used in the subsequent experiments.
TGFα/c-myc mice with confirmed liver tumours according to Gd-EOB-DTPA […]-enhanced MRI or nude mice with HepG2 tumours received iRGD/CEND-1 or RGD control peptide (4 μmol/kg each), or PBS by tail vein injection. […] Another 30 min later, the mice were terminally perfused with Ringer solution by cannulation of the left heart ventricle. Organs were inspected macroscopically following laparotomy, and the liver, tumour and other organs were excised. Evans blue was extracted from tissues in N,N-dimethylformamide for 24 h at 37 °C and quantified spectrophotometrically (Beckman Coulter DU 800, Beckman Coulter, Brea, CA, USA) at 600 nm.

With “CRGDDGPKC (disulfide 1-9 (inferred)) [RGD control peptide, RGD control peptide (…)]” the “increase in Evans blue in the tumour tissue” value was “no effect”.

Reference: article PMC10053770, “Assessment of the Pharmacokinetics, Disposition, and Duration of Action of the Tumour-Targeting Peptide CEND-1” (International Journal of Molecular Sciences, 2023)
